According to patent US20120003661A1, “METHODS AND DEVICES FOR THE SELECTIVE DETECTION OF MICROORGANISMS” (C3 JIAN, INC., priority 2010, published 2012):
Entries after “also recorded” stand apart in the source; their conditions may differ. Like-named read-outs stand apart in the source and are kept apart here.

Test system: bacteria, fungi, and/or yeasts
Format: binding
[1] = microorganism(s) that the targeting peptide binds, as listed in Table 2
[2] = microorganism(s) listed as target(s) of the targeting peptide, wrapped target lists given cell by cell
[3] = microorganism(s) the targeting peptide binds, as listed in Table 2

Row | Substance | Target(s) [2] | Target(s) [3] | further results
1 | PF-C086 (ELFFTILSDCNELFLLHLLQQPLFYIKKGK) | – | – | Target(s) [1]: A. naeslundii, F. nucleatum, P. gingivalis,; also recorded: S. mutans, T. denticola
2 | 1T-284 (FQYYFSLKRV) | A. naeslundii, F. nucleatum, P. gingivalis,; also recorded: S. gordonii, S. mitis,; also recorded: S. mutans, S. oralis, S. salivarious,; also recorded: S. sanguinis | – | –
3 | PF-061 (GYNSYKAVQDVKTHSEEQRVTAKK) | S. epidermidis, S. pneumoniae | – | –
4 | 1T-182 (LTASICRQWNDNSTPYQR) | – | A. naeslundii, F. nucleatum, P. gingivalis,; also recorded: T. denticola, S. gordonii,; also recorded: S. mitis, S. mutans, S. oralis,; also recorded: S. salivarious, S. sanguinis | –
5 | PF-C285 (FTIIELKKQKIKHGENNKKTAHPLNEPFCARA) | – | – | Target(s) [1]: A. naeslundii, F. nucleatum, P. gingivalis,; also recorded: S. mutans, T. denticola
6 | PF-016 (RKQYDDLSFNFLY) | S. epidermidis, E. faecalis, C. jeikeium | – | –
7 | PF-002 (NDDAQ) | yeast and hyphal forms; also recorded: S. epidermidis, P. mirabilis, C. albicans,; also recorded: C. jeikeium, C. jejuni | – | –
8 | PF-001 (MNNWIIVAQLSVTVINEIIDIMKEKQKGGK) | S. epidermidis, M. luteus, P. mirabilis,; also recorded: E. coli, P. aeruginosa,; also recorded: C. albicans, MRSA, E. faecalis,; also recorded: C. jeikeium | – | –
9 | 1T-44 (DPALADFAAGMRAQVRT) | – | S. mutans, S. aureus, S. epidermidis,; also recorded: C. jeikeium, C. striatum,; also recorded: P. aeruginosa | –
10 | PF-636 (LVRLA) | C. albicans hyphae | – | –
11 | 1T-234 (DNFYLILKMEERGKSKKTSQTRGFRAFFDIIRKKIKKEDGK) | – | A. naeslundii, F. nucleatum, P. gingivalis,; also recorded: S. epidermidis, S. gordonii,; also recorded: S. mitis, S. mutans, S. oralis,; also recorded: S. salivarious, S. sanguinis | –
12 | PF-033 (MFIFKTTSKSHFHNNVKSLECIKIPINKNR) | S. epidermidis, M. luteus, E. coli,; also recorded: P. aeruginosa, C. albicans,; also recorded: MRSA, S. pneumoniae | – | –
13 | 1T-100 (LDPLEPRIAPPGDRSHQGAPACHRDPLRGRSARDAER) | – | S. gordonii, S. mitis, S. mutans | –
14 | PF-125 (YVVGALVILAVAGLIYSMLRKA) | S. epidermidis, M. luteus, P. mirabilis,; also recorded: E. coli, P. aeruginosa,; also recorded: C. albicans, MRSA, S. pneumoniae,; also recorded: E. faecalis, C. jejuni | – | –
15 | 1T-240 (VILGNGISNIAQTLGQLPNIAWVWIYMVLIAALLEESNVC) | – | A. naeslundii, F. nucleatum, P. gingivalis,; also recorded: S. epidermidis, S. gordonii,; also recorded: S. mitis, S. mutans, S. oralis,; also recorded: S. salivarious, S. sanguinis | –
16 | PF-169 (APGSAADSPRSRADD) | S. epidermidis, E. coli, C. albicans,; also recorded: E. faecalis, C. jeikeium | – | –
17 | 1T-165 (CYDSFDFSIFVTFANRMKLSVGS) | – | A. naeslundii, F. nucleatum, P. gingivalis,; also recorded: S. epidermidis, S. gordonii,; also recorded: S. mitis, S. mutans, S. oralis,; also recorded: S. salivarious, S. sanguinis | –
18 | PF-798 (ALHSKGIKVMADWVPDQMYA) | – | – | Target(s) [1]: S. mutans
19 | PF-040 (MIHLTKQNTMEALHFIKQFYDMFFILNFNV) | C. albicans hyphae; also recorded: S. epidermidis, M. luteus, P. mirabilis,; also recorded: E. coli, P. aeruginosa,; also recorded: C. albicans, MRSA, S. pneumoniae,; also recorded: E. faecalis, C. jeikeium,; also recorded: C. jejuni | – | –
20 | 1T-173 (LFRKEDQEHVLL) | – | A. naeslundii, F. nucleatum, P. gingivalis,; also recorded: S. gordonii, S. mitis,; also recorded: S. mutans, S. oralis, S. salivarious,; also recorded: S. sanguinis | –
21 | PF-076 (LYQYELLSKEEYLKCTLIINQRRNEQK) | S. epidermidis, M. luteus, E. coli,; also recorded: P. aeruginosa, C. albicans,; also recorded: MRSA, S. pneumoniae, E. faecalis,; also recorded: C. jeikeium, C. jejuni | – | –
22 | PF-171 (TQVTLCRTW) | S. epidermidis, E. coli, P. aeruginosa,; also recorded: S. pneumoniae | – | –
23 | PF-130 (LQRSDEESMPRRHEKYS) | E. faecalis, C. jeikeium, C. jejuni | – | –

Row | Substance | Target(s) [2] | Target(s) [3] | further results
24 | 1T-201 (KRKHENVIVAEEMRVIKN) | – | S. sanguinis | –
25 | 1T-16 (IDMR) | yeast and hyphal forms | P. aeruginosa | –
26 | 1T-230 (EFLEKFKVLKQPRKANNISKNRVAMIFLTIHKSRGFLSSPY) | – | A. naeslundii, F. nucleatum, P. gingivalis,; also recorded: S. epidermidis, S. gordonii,; also recorded: S. mitis, S. mutans, S. oralis,; also recorded: S. salivarious, S. sanguinis | –
27 | PF-124 (MADGQIAAIAKLHGVPVATRNIRHFQSFGVELINPWSG) | S. epidermidis, M. luteus, P. mirabilis,; also recorded: E. coli, P. aeruginosa,; also recorded: C. albicans, MRSA, E. faecalis,; also recorded: C. jejuni | – | –
28 | PF-C063 (SHFRKGD) | – | – | Target(s) [1]: A. naeslundii, F. nucleatum, S. mutans
29 | 1T-147 (GVENRRFYERDVSKVSMMTSEAVAPRGGSK) | – | A. naeslundii, F. nucleatum, P. gingivalis,; also recorded: T. denticola, S. gordonii,; also recorded: S. mitis, S. mutans, S. oralis,; also recorded: S. salivarious, S. sanguinis | –
30 | PF-788 (GLITVFAGTARILQLRRAAKKTHAAALR) | – | – | Target(s) [1]: Mycobacteria spp.
31 | 1T-128 (SGSAIRMLEIATKMLKR) | – | A. naeslundii, P. gingivalis, S. epidermidis,; also recorded: S. gordonii, S. mitis,; also recorded: S. mutans, S. oralis, S. salivarious,; also recorded: S. sanguinis | –
32 | PF-162 (GIRRLHSVENLNREISHRMAGLR) | S. epidermidis, MRSA | – | –
33 | 1T-161 (NKVLQVEVMWDGSVVGRPAGVISIKSSKKG) | – | A. naeslundii, F. nucleatum, P. gingivalis,; also recorded: S. epidermidis, S. gordonii,; also recorded: S. mitis, S. mutans, S. oralis,; also recorded: S. salivarious, S. sanguinis | –
34 | PF-039 (MLEEKNKSL) | P. mirabilis, C. jeikeium | – | –
35 | PF-154 (GIKKSKHPSTDDYVVKTTIDSL) | S. mutans | – | –
36 | 1T-22 (VPLDDGTRRPEVARNRDKDRED) | – | S. epidermidis, P. aeruginosa | –
37 | 1T-10 (SPAGLPGDGDEA) | – | M. xanthus | –
38 | 1T-282 (ISLVFPAYT) | F. nucleatum, P. gingivalis, S. gordonii,; also recorded: S. mitis, S. mutans, S. oralis,; also recorded: S. salivarious, S. sanguinis | – | –
39 | 1T-301 (SKLPRVLDASLKL) | F. nucleatum, S. gordonii, S. sanguinis | – | –
40 | PF-C135 (KNTHAYLRVLRLSSLILSYQASVYPLFAYLCQQKDY) | – | – | Target(s) [1]: A. naeslundii, F. nucleatum, P. gingivalis,; also recorded: S. mutans
41 | 1T-56 (LALIGAGIWMIRKG) | – | C. xerosis, P. aeruginosa | –
42 | 1T-271 (FLIQKFLLIKTFPPYRKKYVVIVSQTGTA) | A. naeslundii, F. nucleatum, P. gingivalis,; also recorded: S. epidermidis, S. gordonii,; also recorded: S. mitis, S. mutans, S. oralis,; also recorded: S. salivarious, S. sanguinis | – | –
43 | PF-028 (ALDCSEQSVILWYETILDKIVGVIK) | S. epidermidis, M. luteus, MRSA | – | –
44 | Rv2660c (RSPDFVDETAGQSWCAILGLNQFH) | C. albicans | – | –
45 | 1T-52 (DEYPAKLPLSDKGATEPRRH) | – | S. aureus, C. xerosis, P. aeruginosa | –
46 | 1T-124 (LFDERNKIA) | – | S. mitis, S. mutans, S. oralis | –

Row | Substance | Target(s) [2] | Target(s) [3] | further results
47 | PF-147 (RRPRRRRSGHGQSASAA) | S. epidermidis, M. luteus, MRSA | – | –
48 | 1T-222 (RIEASLISAIMFSMFNAIVKFLQK) | – | F. nucleatum, S. sanguinis | –
49 | 1T-274 (ETTTEINAIKLHRIKQRSPQGTRRVN) | F. nucleatum, S. mutans, S. oralis,; also recorded: S. sanguinis | – | –
50 | PF-S007 (VVAGVVLLTALAVGSKRKEKKQIKEIQRLLAATR) | – | – | Target(s) [1]: S. epidermidis, MRSA
51 | 1T-86 (HRKNPVLGVGRRHRAHNVA) | – | S. mitis, S. oralis, S. salivarious | –
52 | 1T-228 (IFKLFEEHLLYLLDAFYYSKIFRRLKQGLYRRKEQPYTQDLFRM) | – | A. naeslundii, F. nucleatum, P. gingivalis,; also recorded: S. epidermidis, S. gordonii,; also recorded: S. mitis, S. mutans, S. oralis,; also recorded: S. salivarious, S. sanguinis | –
53 | 1T-146 (RNSADNQTKIDKIRIDISLWDEHLNIVKQGK) | – | A. naeslundii, F. nucleatum, P. gingivalis,; also recorded: T. denticola, S. gordonii,; also recorded: S. mitis, S. mutans, S. oralis,; also recorded: S. salivarious, S. sanguinis | –
54 | 1T-90 (RNVIGQVL) | – | S. gordonii, S. mitis, S. mutans,; also recorded: S. oralis, S. sanguinis | –
55 | PF-C057 (YFWWYWVQDCIPYKNNEVWLELSNNMK) | – | – | Target(s) [1]: A. naeslundii, F. nucleatum, P. gingivalis,; also recorded: S. mutans
56 | 1T-135 (FESLLPQATKKIVNNKGSKINKIF) | – | A. naeslundii, P. gingivalis, S. epidermidis,; also recorded: S. gordonii, S. mitis,; also recorded: S. mutans, S. oralis, S. salivarious,; also recorded: S. sanguinis | –
57 | PF-129 (MKLLARDPWVCAWNDIW) | S. epidermidis, MRSA, E. faecalis,; also recorded: C. jeikeium, C. jejuni | – | –
58 | PF-C131 (QWIVAKREIRMHIYCHISVIHVIIFFG) | – | – | Target(s) [1]: A. naeslundii, F. nucleatum, P. gingivalis,; also recorded: S. mutans
59 | 1T-263 (FIAVSFTGNPATFKLVIGCKADN) | A. naeslundii, F. nucleatum, P. gingivalis,; also recorded: S. epidermidis, S. gordonii,; also recorded: S. mitis, S. oralis, S. salivarious,; also recorded: S. sanguinis | – | –
60 | 1T-260 (NILYFIHDENQWEPQKAEIFRGSIKHCAWLSS) | A. naeslundii, P. gingivalis, S. epidermidis,; also recorded: S. gordonii, S. mitis,; also recorded: S. mutans, S. oralis, S. sanguinis | – | –
61 | PF-153 (GILARADCSQIA) | M. luteus, P. mirabilis, E. coli, and MRSA | – | –
62 | PF-097 (QPTQGEQGTRPRRPTPMRGLLI) | C. jeikeium | – | –
63 | PF-631 (LIIYFSKTGNTARATRQI) | yeast and hyphal forms | – | –
64 | 1T-258 (TINIDDKVLDYLKKINSKAITIDLIGCAS) | A. naeslundii, F. nucleatum, P. gingivalis,; also recorded: T. denticola, S. mitis,; also recorded: S. mutans, S. oralis | – | –
65 | PF-067 (DLIVKVHICFVVKTASGYCYLNKREAQAAI) | S. epidermidis, M. luteus, P. mirabilis,; also recorded: E. coli, P. aeruginosa,; also recorded: C. albicans, MRSA, S. pneumoniae,; also recorded: E. faecalis, C. jeikeium,; also recorded: C. jejuni | – | –
66 | PF-S004 (VLLNIFRTLLEFFSPSNAPGAEDVPLPDTQA) | – | – | Target(s) [1]: S. epidermidis, MRSA, C. jeikeium
67 | 1T-261 (SFEKNKIENNLKIAQAYIYIKPKPRICQA) | F. nucleatum, S. mutans, S. oralis,; also recorded: S. sanguinis | – | –
68 | PF-156 (LITAEQPATAPIAGK) | S. epidermidis, C. jeikeium | – | –
